Test [1] relates to RAW264.7 murine macrophage cell line, nitric oxide production. Nature of the test: Inhibition of nitric oxide production in LPS-stimulated RAW264.7 macrophages (Griess reaction); isobologram for combinations. The class given is cell-based. Here is the method: (§1) The anti-inflammatory effect of a mixture of Cajanus in combination with glucosamine sulfate was determined in cellular assays by measuring the inhibition of the synthesis of nitric oxide and/or pro-inflammatory prostaglandins (PGE2). PGE2 plays a critical role in the inflammation process, while nitric oxide (NO) is a hallmark of inflammation in various chronic inflammatory diseases including various forms of arthritis, gastro-intestinal diseases and metabolic syndrome X (Creamer P et al 1997 Lancet 350:503-508; Vuolteenaho et al. 2007 Scand. J Rheumatology 36:247-258).
(§2) The effects on the inflammatory response were tested in cellular assays using a murine macrophage cell line, RAW264.7. […]
Concentrations of nitrite were determined by the Griess reaction using sodium nitrite as standard. Briefly, 50 ul of supernatant was mixed with Griess reagent 1 (25 uL) and Griess reagent 2 (25 uL), centrifuged and the optical density at 540 nm determined. PGE2 secreted into the cell culture medium was determined by EIA obtained from Cayman Chemicals (Ann Harbor, Wis., USA) and used according to the manufacturer's instructions. […] IC50 values for LPS-stimulated cells were calculated using a […] least-square fitting equation [y=A+((B−A)/(1+((C−x)̂D))] for best-fit curves (Excel fit software program). […]
Background: The Griess reaction detects nitrite, a stable product of nitric oxide.

The test system of test [2] is RAW264.7 murine macrophage cell line, PGE2 production. Nature of the test: Inhibition of PGE2 synthesis in LPS-stimulated RAW264.7 macrophages (EIA). It is filed as cell-based. Here is the method: as §1, §2
Concentrations of nitrite were determined by the Griess reaction using sodium nitrite as standard. Briefly, 50 ul of supernatant was mixed with Griess reagent 1 (25 uL) and Griess reagent 2 (25 uL), centrifuged and the optical density at 540 nm determined. PGE2 secreted into the cell culture medium was determined by EIA obtained from Cayman Chemicals (Ann Harbor, Wis., USA) and used according to the manufacturer's instructions. […] IC50 values for LPS-stimulated cells were calculated using a […] least-square fitting equation [y=A+((B−A)/(1+((C−x)̂D))] for best-fit curves (Excel fit software program).

The mark [3] stands for this setting: Mus musculus, single substances, LPS 1 ug/ml, 24 hours, RAW264.7.

Bounds are passed on as bounds.

This is an account of results in patent US20110300240A1, “CAJANUS EXTRACTS AND GLUCOSAMINE FOR INFLAMMATORY DISORDERS” (priority 2009, published 2011).

Turning to `N[C@H]1C(O)O[C@H](CO)[C@@H](O)[C@@H]1O.O=S(=O)(O)O` (stereo partly shown) [Glucosamine sulfate], in test [1] (LPS-stimulated RAW264.7), the “effect on NO production (in words)” value is recorded as “no or only a marginal anti-inflammatory”. In addition, the IC50 in test [1] (setting [3]) and in test [2] (setting [3]) was > 100 µg/mL in each case. Further, the “effect on PGE2 production (in words)” value in test [2] (LPS-stimulated RAW264.7) was “no or only a marginal anti-inflammatory”.

What is called IC50 is the concentration that inhibits the measured activity by half.
